Activity calls are given as the source filed them. No cut-off for these calls is given here.

The values that follow come from ChEMBL document CHEMBL5705903, “A DNA Hypomethylation Signature Predicts Antitumor Activity of LSD1 Inhibitors in SCLC” (Cancer Cell, 2015).

A short description of series [1]: AUC (0 to infinity) in mouse at 5.5 mg/kg, ip by HPLC/MS/MS analysis. It counts as ADME, organism-based. The conditions noted are these: in vivo.
A short description of series [2]: Effect on cleaved PARP level in human NCI-H2171 cells assessed as fold change at 100 nM measured after 10 days by Western blot analysis (reference value: 1.00). In kind it is functional. The settings on record: time 10 day. On the technique in general: In western blotting, separated proteins are transferred to a membrane and probed.
A further series deals with NCI-H526. In words: In vivo inhibition of LSD1 in human NCI-H526 cells xenografted in nude mouse assessed as change in FEZ1 gene expression measured after 24 hrs post single administration by qRT-PCR analysis. In kind it is functional, organism-based. The conditions noted are these: dose 0.06-135 mg/kg.
The nature of series [3]: Effect on cleaved PARP level in human NCI-H69 cells assessed as fold change at 1000 nM measured after 7 days by Western blot analysis (reference value: 1.00). It counts as functional. The conditions noted are these: time 7 day.
Series [4] is described as follows: Effect on cleaved PARP level in human NCI-H146 cells assessed as relative expression at 1000 nM measured after 14 days by Western blot analysis (reference value: 2.42). In kind it is functional. The settings on record: time 14 day.
Series [5] in a line: Effect on cleaved PARP level in human COLO-668 cells assessed as fold change at 100 nM measured after 14 days by Western blot analysis (reference value: 1.00). In kind it is functional. The settings on record: time 14 day.
The nature of series [6]: Effect on cleaved PARP level in human NCI-H510 cells assessed as relative expression at 10 nM measured after 7 days by Western blot analysis (reference value: 0.24). In kind it is functional, NCI-H510A. The conditions noted are these: time 7 day.
Series [7] is described as follows: Effect on cleaved PARP level in human NCI-H1694 cells assessed as fold change at 1000 nM measured after 10 days by Western blot analysis (reference value: 1.00). It counts as functional. The settings on record: time 10 day.
Series [8] in a line: Effect on cleaved PARP level in human NCI-H2171 cells assessed as relative expression at 100 nM measured after 10 days by Western blot analysis (reference value: 0.02). It counts as functional. The conditions noted are these: time 10 day.
Series [9] can be described thus: Effect on cleaved PARP level in human NCI-H526 cells assessed as relative expression at 100 nM measured after 10 days by Western blot analysis (reference value: 0.81). In kind it is functional. The conditions noted are these: time 10 day.
The nature of series [10]: Effect on cleaved PARP level in human NCI-H69 cells assessed as relative expression at 1000 nM measured after 10 days by Western blot analysis (reference value: 0.03). In kind it is functional. The settings on record: time 10 day.
The test system of a further series is NCI-H510A. Put plainly: Effect on NCAM gene expression in human NCI-H510A cells at 1 uM measured after 4 days by qRT-PCR analysis. The conditions noted are these: time 4.0 day. In kind it is functional, cell-based. For orientation: Real-time PCR tracks product formation cycle by cycle.
A short description of series [11]: Toxicity in dog assessed as myelofibrosis measured for 28 days. The arrangement: species or system Canis lupus familiaris. The settings on record: in vivo, 672 h, time 28 day.
Series [12] in a line: Effect on cleaved PARP level in human NCI-H889 cells assessed as relative expression at 1000 nM measured after 10 days by Western blot analysis (reference value: 0.33). In kind it is functional. The settings on record: time 10 day.
Series [13] in a line: Effect on cleaved PARP level in human NCI-H1417 cells assessed as fold change at 100 nM measured after 7 days by Western blot analysis (reference value: 1.00). In kind it is functional. The conditions noted are these: time 7 day.
In series [14] the target is Lysine-specific histone demethylase 1A (Homo sapiens, UniProt O60341).
Description: Binding affinity to LSD1 (unknown origin) using H3K4me2 as substrate assessed as inactivation constant by HRP-coupled amplex red assay
Series [15] can be described thus: Effect on cleaved PARP level in human NCI-H2171 cells assessed as fold change at 10 nM measured after 7 days by Western blot analysis (reference value: 1.00). The settings on record: time 7 day. In kind it is functional.
Another series has as its system NCI-H1417. In words: Cell growth inhibition of human NCI-H1417 cells measured for 4 days. In kind it is functional, cell-based. The conditions noted are these: time 4.0 day.
Series [16] in a line: Effect on cleaved PARP level in human NCI-H1694 cells assessed as relative expression at 10 nM measured after 7 days by Western blot analysis (reference value: 0.25). The conditions noted are these: time 7 day. It counts as functional.
A short description of series [17]: Effect on cleaved PARP level in human NCI-H510 cells assessed as fold change at 10 nM measured after 10 days by Western blot analysis (reference value: 1.00). In kind it is functional, NCI-H510A. The settings on record: time 10 day.
The nature of series [18]: Toxicity in dog assessed as congestion in lymphoid organs measured for 28 days. The arrangement: species or system Canis lupus familiaris. The settings on record: in vivo, 672 h, time 28 day.
Series [19] is described as follows: Effect on cleaved PARP level in human NCI-H69 cells assessed as fold change at 100 nM measured after 7 days by Western blot analysis (reference value: 1.00). In kind it is functional. The settings on record: time 7 day.
Series [20] can be described thus: Effect on cleaved PARP level in human NCI-H69 cells assessed as relative expression at 10 nM measured after 10 days by Western blot analysis (reference value: 0.03). The conditions noted are these: time 10 day. It counts as functional.
Series [21] can be described thus: Toxicity in rat assessed as congestion in lymphoid organs measured for 28 days. The settings on record: in vivo, 672 h, time 28 day.
Another series deals with NCI-H69. Put plainly: Antitumor activity against human NCI-H69 cells xenografted in nude mouse assessed as mean tumor volume at 0.5 mg/kg, po administered daily measured twice weekly (reference value: 1063 +/- 161 mm3). It counts as functional.
A short description of series [22]: Effect on cleaved PARP level in human NCI-H510 cells assessed as fold change at 100 nM measured after 7 days by Western blot analysis (reference value: 1.00). In kind it is functional, NCI-H510A. The settings on record: time 7 day.
Series [23] can be described thus: Effect on cleaved PARP level in human NCI-H526 cells assessed as fold change at 10 nM measured after 14 days by Western blot analysis (reference value: 1.00). In kind it is functional. The settings on record: time 14 day.
Series [24] is described as follows: Effect on cleaved PARP level in human NCI-H526 cells assessed as relative expression at 10 nM measured after 10 days by Western blot analysis (reference value: 0.81). It counts as functional. The settings on record: time 10 day.
Series [25] can be described thus: Effect on cleaved PARP level in human NCI-H1694 cells assessed as relative expression at 100 nM measured after 10 days by Western blot analysis (reference value: 0.31). In kind it is functional. The settings on record: time 10 day.
Series [26] can be described thus: Effect on cleaved PARP level in human NCI-H889 cells assessed as fold change at 100 nM measured after 14 days by Western blot analysis (reference value: 1.00). In kind it is functional. The settings on record: time 14 day.
The nature of series [27]: Effect on cleaved PARP level in human NCI-H510 cells assessed as fold change at 10 nM measured after 14 days by Western blot analysis (reference value: 1.00). The conditions noted are these: time 14 day. It counts as functional, NCI-H510A.
A short description of series [28]: Effect on cleaved PARP level in human NCI-H889 cells assessed as fold change at 10 nM measured after 7 days by Western blot analysis (reference value: 1.00). It counts as functional. The conditions noted are these: time 7 day.
The nature of series [29]: Effect on cleaved PARP level in human NCI-H524 cells assessed as fold change at 1000 nM measured after 14 days by Western blot analysis (reference value: 1.00). The settings on record: time 14 day. In kind it is functional.
The nature of series [30]: Effect on cleaved PARP level in human NCI-H1694 cells assessed as fold change at 10 nM measured after 14 days by Western blot analysis (reference value: 1.00). It counts as functional. The conditions noted are these: time 14 day.
A short description of series [31]: Effect on cleaved PARP level in human NCI-H889 cells assessed as fold change at 100 nM measured after 10 days by Western blot analysis (reference value: 1.00). The conditions noted are these: time 10 day. In kind it is functional.
A short description of series [32]: Effect on cleaved PARP level in human NCI-H2171 cells assessed as relative expression at 1000 nM measured after 7 days by Western blot analysis (reference value: 0.02). The conditions noted are these: time 7 day. It counts as functional.
The nature of series [33]: Effect on cleaved PARP level in human NCI-H1694 cells assessed as fold change at 10 nM measured after 7 days by Western blot analysis (reference value: 1.00). The conditions noted are these: time 7 day. In kind it is functional.

One may read the AUC(0-inf) as the area under the concentration-time curve extrapolated to infinity. Read a high AUC(0-inf) as high exposure. `c1ccc([C@@H]2C[C@H]2NC2CCNCC2)cc1` registered an AUC(0-inf) in series [1] of 938 ng·h/mL.

For `O=C(O)c1ccc(CN2CCC(CN[C@@H]3C[C@H]3c3ccccc3)CC2)cc1` [GSK2879552], the “fold change (FC)” value in series [2] came out at 1.2; in series [3], 2.21; in series [5], 0.25; in [7], 0.71; in [13], 2.85; in series [15], 1.53. In addition, the “fold change (FC)” value came out at 4.22 in [17]; 1.32 in [19]; 1.84 in series [22]; 0.73 in [23]; 2.51 in series [26]; 1.79 in series [27]. Also, the “fold change (FC)” value in series [28] turned out to be 0.09; in series [29], 0.77; in [30], 0.85; in [31], 2.25; in [33], 1.22. Also, the inhibition result with NCI-H526 was “Dose-Dependent Effect”. The Activity in series [4] is on record as 1.45; in [6], 0.3; in series [8] it was 0.02; in [9] it was 0.94; in series [10], 0.09; in [11], “Toxic”. Moreover, the Activity in series [12] is reported as 0.91; in series [16] it was 0.3; in series [18], “Toxic”; in series [20] it was 0.06; in series [21], “Toxic”; in the series on NCI-H69 it was 592 mm3. Besides, the Activity in series [24] was 0.46; in series [25] it was 0.23; in [32], 0.04. The outcome in the series on NCI-H510A was inactive. Also, in [14], the Kinact is 0.11 min⁻¹. In addition, the “growth inhibition (GI)” value in the series on NCI-H1417 was “inactive”.
